Patent US20160243164A1, “ANTIMICROBIAL SILVER HYDROGEL COMPOSITION FOR THE TREATMENT OF BURNS AND WOUNDS” (CELACARE TECHNOLOGIES, LLC, priority 2011, published 2016)
≈ marks a conversion by molar mass, not a printed value. Each block holds one compound with its values, some of them ahead of it.

Key:
[1] = topical exposure for 4 hours; cited from earlier work
[2] = test system: Pseudomonas aeruginosa ATCC 27853; experiment: microtube dilution MIC; format: cell-based; conditions: Example 13; P. aeruginosa ATCC 27853
Description: (§1) In brief, a standard inoculum (100 μL of a 1:200 dilution of a 0.5 MacFarland turbidity standard) of each microorganism was prepared in standard growth media and added to equal volumes of two-fold serial dilutions of SC and SC-Gel. MICs were determined visually as the highest dilution of SC, or SC-Gel, that inhibited growth after incubating the mixtures overnight at 35° C., except for Candida albicans, which required 48 hrs incubation. […] The MIC dilution was converted to μg/mL by multiplying the neat drug (Ag^+) concentration by the dilution appropriate dilution factor.
In brief, a standard inoculum (100 μL of a 1:200 dilution of a 0.5 MacFarland turbidity standard) of each microorganism was prepared in standard growth media and added to equal volumes of two-fold serial dilutions of SC and SC-Gel. MICs were determined visually as the highest dilution of SC, or SC-Gel, that inhibited growth after incubating the mixtures overnight at 35° C., except for C. albicans, which required 48 hrs incubation. […] The MIC dilution was converted to μg/mL by multiplying the neat drug (Ag^+) concentration by the dilution appropriate dilution factor. […]

[3] = test system: Escherichia coli ATCC 25922; experiment: microtube dilution MIC; format: cell-based; conditions: Example 13; E. coli ATCC 25922
Description: as §1
The method described in Example 8 for minimum inhibitory concentration (MIC) was utilized for evaluation of activity of the compositions against Staphylococcus aureus and Streptococcus pyogenes (Gram-positive cocci) and Pseudomonas aeruginosa and Escherichia coli (Gram-negative rod) organisms.

[4] = test system: Candida albicans ATCC 10231; experiment: microtube dilution MIC; format: cell-based; conditions: ATCC10231, Example 9, 48 hrs incubation
Description: as §1
In brief, a standard inoculum (100 μL of a 1:200 dilution of a 0.5 MacFarland turbidity standard) of each microorganism was prepared in standard growth media and added to equal volumes of two-fold serial dilutions of SC and SC-Gel. MICs were determined visually as the highest dilution of SC, or SC-Gel, that inhibited growth after incubating the mixtures overnight at 35° C., except for C. albicans, which required 48 hrs incubation. […] The MIC dilution was converted to μg/mL by multiplying the neat drug (Ag^+) concentration by the dilution appropriate dilution factor.

Compound: O=C(O)CN(CCN(CC(=O)O)CC(=O)O)CC(=O)O.[Na].[Na] [Disodium EDTA, disodium ethylenediaminetetraacetic acid]
reactivity in human patch test [1]: no reactivity

Compound: O=C([O-])CC(O)(CC(=O)[O-])C(=O)[O-].[Ag+].[Ag+].[Ag+] [SC Liquid, silver citrate]
Minimal Inhibitory Concentration (MIC) [2]: 11.25 µg/mL
Minimal Inhibitory Concentration (MIC) [3]: 7.5 µg/mL

MIC [4]: 0.49 µg/mL (≈ 1.18 µM)
Compound: Clc1ccc(COC(Cn2ccnc2)c2ccc(Cl)cc2Cl)c(Cl)c1 (stereo not shown) [MZL, Miconazole]
